Laboratory results from US8742167B2, “Therapeutic formulations based on asiatic acid and selected salts thereof” (Shanghai Institute of Pharmaceutical Industry, priority 2008, dated 2014).
Converted amounts (≈) assume the structure as drawn. “And” between values parts separate entries of the source, which are not always exact repeats. Identical values can stand only once. “Also recorded” adds a separate entry of the source. Like-named read-outs stand apart in the source and are kept apart here. Marks after values point to notes of the source that are not given here.

Key:
[1] = test system: bleomycin-induced pulmonary fibrosis in rats; assay: Mortality during experiment days 7-28, bleomycin-induced pulmonary fibrosis in rats; format: in vivo, SD rats
Description: (§1) Male SD rats, body weight 250-300 g. The animals were anesthetized with 3% seconal, laid flat and fixed onto the operating table. The necks of the animals were disinfected with alcohol and cut to expose tracheae. A needle was inserted via the space between tracheal rings centripetally, and 5 mg/kg of bleomycin was injected. The rats were kept upright and rotated, in order to keep the solution uniformly distributed in the lungs. Then the incisions were sutured.
(§2) After the rats regained consciousness, they were randomly grouped. The animals were divided into (i) a group receiving administration on the next day after establishing the model and (ii) a group receiving administration at 7 days after the model was established. Included were 27, 9, and 3 mg/kg p.o.×28 d asiatic acid groups, 0.6 mg/kg p.o.×28 d dexamethasone group, 36 mg/kg p.o.×28 d asiaticoside group, model group, and blank group. Normal saline was administered for the model and blank groups. On the 28th day after asiatic acid and asiaticoside administration, survival and weight ratio of lungs were measured; pathological examination and serological examination were performed.

[2] = Solubility in water and methanol (saturated solutions, HPLC); format: physicochemical
Description: Approximately 5 mg of asiatic acid were transferred into a 25 mL volumetric flask, and 1 mL, of methanol was added and mixed well, until the acid had dissolved in the methanol. The volumetric flask then was brought to volume with mobile phase and mixed well. [table] Saturated solutions obtained from starting material and salt in methanol and water were filtered and diluted accordingly with mobile phase. No dilution was performed for asiatic acid in water. Samples were prepared in triplicate except for the sodium salt prepared in methanol, for which two preparations were done.

[3] = test system: pulmonary fibrosis induced by bleomycin in rats; assay: Pathological analysis of lung (HE staining; collagen fiber and elastic fiber dual staining); format: in vivo, SD rats; conditions: for collagen fiber and elastic fiber staining / lung pathology, HE staining: administration on the next day after establishing model
Description: as §1, §2
The lung tissues were fixed in 10% formalin for 1 week. […] The thickness of sections was […]. Routine hematoxylin-eosin (HE) staining was performed. Dual special staining of collagen fibers and elastic fibers were conducted in order to detect the degree of fibrosis. The staining of the two groups of sections was observed and the results were as follows.

Type III collagen = Type III collagen content, bleomycin rat model; format: in vivo, SD rats; conditions: for Type III collagen content X ± SD: treatment starting on Day 7
Description: as §1, §2

Hydroxyproline = assay: Measured value of hydroxyproline in experiment of asiatic acid antagonizing fibrosis; format: in vivo, SD rats; parameters: Measured Value of Hydroxyproline (on 2nd day), single animals / Measured Value of Hydroxyproline (on 2nd day), X / Measured Value of Hydroxyproline (on 7th day), single animals / Measured Value of Hydroxyproline (on 7th day), X: unit not given here; conditions: for Measured Value of Hydroxyproline (on 2nd day), X / Measured Value of Hydroxyproline (on 7th day), X: group mean; for Measured Value of Hydroxyproline (on 2nd day), single animals / Measured Value of Hydroxyproline (on 7th day), single animals: individual rats 1-10
Description: as §1, §2

TNF-α = assay: Serological test (ELISA kit) of TNF-α in rats of bleomycin-induced pulmonary fibrosis; format: in vivo, SD rats; conditions: for TNF-α (2nd day) X ± SD / TNF-α (7th day) X ± SD: serum; for TNF-α (2nd day) X ± SD: dosing from 2nd day; for TNF-α (7th day) X ± SD: dosing from 7th day; for serum levels of TNF-α (words): treatment initiated one day or seven days after bleomycin
Description: TNF-α Kit, Human 96T ELISA kit imported by Shanghai Jingmei
as §1, §2
(§3) Serum samples were prepared according to a standard protocol (centrifuged 3000 rpm, 10 minutes after collection) and were stored at −20° C. Testing was conducted in accordance with kit instructions.

[4] = test system: bleomycin-induced pulmonary fibrosis in rats; assay: Lung weight index of bleomycin-induced pulmonary fibrosis in rats; format: in vivo, SD rats; conditions: for lung weight ratio (%): (lung weight/body weight)x100%
Description: as §1, §2
Effect of on lung weight index of bleomycin-induced pulmonary fibrosis in rats treated with asiatic acid Body weight and lung weight were measured after the rats were sacrificed. Lung weight ratio=(lung weight/body weight)×100%.

TFG-β = assay: Serological test (ELISA kit) of TFG-β in rats of bleomycin-induced pulmonary fibrosis; format: in vivo, SD rats; conditions: for TFG-β (2nd day) X ± SD / TFG-β (7th day) X ± SD: serum; for TFG-β (2nd day) X ± SD: dosing from 2nd day; for TFG-β (7th day) X ± SD: dosing from 7th day; for serum levels of TGF-β (words): treatment initiated one day or seven days after bleomycin
Description: TFG-β Kit, Human 96T ELISA kit imported by Shanghai Jingmei
as §1, §2, §3

[5] = asiatic acid high dose (27 mg/kg)
[6] = asiatic acid low dose (3 mg/kg)
[7] = asiatic acid middle dose (9 mg/kg)

## C[C@H]1[C@H](C)CC[C@]2(C(=O)O)CC[C@]3(C)C(=CC[C@@H]4[C@@]5(C)C[C@@H](O)[C@H](O)[C@@](C)(CO)[C@@H]5CC[C@]43C)[C@H]12 [Asiatic acid, asiatic acid]
[1]; Asiatic acid-H (27 mg/kg p.o. x 28 d), dosing started on 2nd day, 13 on day 7
  remaining samples at the end of study: 13
[1]; Asiatic acid-H (27 mg/kg p.o. x 28 d), dosing started on 2nd day, days 7-28
  number of deaths: 0
[1]; Asiatic acid-H (27 mg/kg p.o. x 28 d), dosing started on 7th day
  number of deaths: 0
[1]; Asiatic acid-H (27 mg/kg p.o. x 28 d), dosing started on 7th day, 13 in the group
  remaining samples at the end of study: 13
[1]; Asiatic acid-L (3 mg/kg p.o. x 28 d), dosing started on 2nd day, 13 on day 7
  remaining samples at the end of study: 11
[1]; Asiatic acid-L (3 mg/kg p.o. x 28 d), dosing started on 2nd day, days 7-28
  number of deaths: 2
[1]; Asiatic acid-L (3 mg/kg p.o. x 28 d), dosing started on 7th day
  number of deaths: 1
[1]; Asiatic acid-L (3 mg/kg p.o. x 28 d), dosing started on 7th day, 13 in the group
  remaining samples at the end of study: 12
[1]; Asiatic acid-M (9 mg/kg p.o. x 28 d), dosing started on 2nd day, 14 on day 7
  remaining samples at the end of study: 13
[1]; Asiatic acid-M (9 mg/kg p.o. x 28 d), dosing started on 2nd day, days 7-28
  number of deaths: 1
[1]; Asiatic acid-M (9 mg/kg p.o. x 28 d), dosing started on 7th day
  number of deaths: 1
[1]; Asiatic acid-M (9 mg/kg p.o. x 28 d), dosing started on 7th day, 13 in the group
  remaining samples at the end of study: 12
[1]; rats treated with bleomycin, treatment initiated one day or seven days after bleomycin
  survival / bleomycin-induced death: largely prevented bleomycin-induced death; also recorded: significantly enhance survival
[2]; MeOH, single preparations (inj 1A-1C), listed as Asiatic acid raw material
  Solubility: 37200 µg/mL and 34870 µg/mL
[2]; methanol
  solubility in methanol: good solubility
[2]; methanol, organic solvent or mixture, thermodynamic from solid, MeOH, single preparations (inj 1A-1C), read-out: Solubility
  Solubility: 27200 µg/mL (≈ 55700 µM)
[2]; water, thermodynamic from solid, water, read-out: Solubility in water
  Solubility: 30 µg/mL (≈ 61.4 µM)
[2]; water, thermodynamic from solid, water, single preparations (inj 1A-1C), read-out: Solubility
  Solubility: 30 µg/mL (≈ 61.4 µM)
[2]; water, single preparations (inj 1A-1C), listed as Asiatic acid raw material
  Solubility: 40 µg/mL and 20 µg/mL
[3]; [5]
  collagen fiber and elastic fiber staining: only a little fibroplastic proliferation
  lung pathology, HE staining: mild infiltration of inflammatory cells
[3]; asiatic acid high-dose group
  efficacy by pathology compared with asiaticoside group: better than in the asiaticoside group
[3]; [6]
  lung pathology, HE staining: mild inflammation and alveolitis
[3]; [7]
  collagen fiber and elastic fiber staining: significantly milder than that of the model group
  lung pathology, HE staining: mild infiltration of inflammatory cells
[3]; overall statement
  bleomycin-induced lung fibrosis by lung histopathology: effective against bleomycin-induced pulmonary fibrosis, on a dose-response basis; also recorded: reduces the extent of bleomycin-induced lung fibrosis
[3]; treatment initiated seven days after bleomycin insult
  lung fibrosis by histopathology compared with dexamethasone: more effective than dexamethasone
Type III collagen; asiatic acid Medium dose (9 mg/kg)
  Type III collagen content X ± SD: 0.515 ± 0.398
Type III collagen; [5]
  Type III collagen content X ± SD: 0.387 ± 0.287
Type III collagen; [6]
  Type III collagen content X ± SD: 0.764 ± 0.826
Type III collagen; overall statement
  serum levels of type III collagen: significantly decrease bleomycin-induced fibrosis
Hydroxyproline; asiatic acid 3 mg/kg
  Measured Value of Hydroxyproline (on 2nd day), X: 24.31
  Measured Value of Hydroxyproline (on 7th day), X: 25.65
  Measured Value of Hydroxyproline (on 2nd day), single animals: 19.57 and 28.21 and 24.03 and 19.66 and 25.61 and 26.55 and 26.34 and 24.09 and 19.07 and 29.99
  Measured Value of Hydroxyproline (on 7th day), single animals: 20.31 and 27.14 and 28.27 and 26.14 and 28.01 and 29.34 and 25.07 and 25.36 and 25.47 and 21.37
Hydroxyproline; asiatic acid 9 mg/kg
  Measured Value of Hydroxyproline (on 2nd day), X: 22.94
  Measured Value of Hydroxyproline (on 7th day), X: 25.21
  Measured Value of Hydroxyproline (on 2nd day), single animals: 28.26 and 15.05 and 29.14 and 28.98 and 27.69 and 19.03 and 19.46 and 18.22 and 24.01 and 19.56
  Measured Value of Hydroxyproline (on 7th day), single animals: 28.19 and 24.39 (2×) and 27.98 and 28.36 and 19.36 and 24.64 and 25.66 and 29.47 and 19.66
Hydroxyproline; asiatic acid 27 mg/kg
  Measured Value of Hydroxyproline (on 2nd day), X: 21.65
  Measured Value of Hydroxyproline (on 7th day), X: 23.40
  Measured Value of Hydroxyproline (on 2nd day), single animals: 17.64 and 25.36 and 25.18 and 24.36 and 20.19 and 18.6 and 19.36 and 20.97 and 27.69 and 17.11
  Measured Value of Hydroxyproline (on 7th day), single animals: 19.68 and 19.47 and 20.14 and 24.36 (2×) and 27.14 and 25.1 and 26.38 and 27.66 and 19.74
Hydroxyproline; overall statement
  serum levels of hydroxyproline: significantly decrease bleomycin-induced fibrosis
TNF-α; asiatic acid 3 mg/kg
  TNF-α (2nd day) X ± SD: 0.055 ± 0.008 OD value
  TNF-α (7th day) X ± SD: 0.084 ± 0.018 OD value
TNF-α; asiatic acid 9 mg/kg
  TNF-α (2nd day) X ± SD: 0.056 ± 0.016 OD value
  TNF-α (7th day) X ± SD: 0.096 ± 0.036 OD value
TNF-α; asiatic acid 27 mg/kg
  TNF-α (2nd day) X ± SD: 0.050 ± 0.007 OD value
  TNF-α (7th day) X ± SD: 0.047 ± 0.013 OD value
TNF-α
  serum levels of TNF-α (words): significantly reduces
TNF-α; listed as asiatic acid
  serum levels of TNF-α (words): can lower
[4]; asiatic acid 3 mg/kg, started 7 day after model established
  lung weight ratio (%): 0.83** %
[4]; asiatic acid 3 mg/kg, started from the second day
  lung weight ratio (%): 0.84** %
[4]; asiatic acid 9 mg/kg, started 7 day after model established
  lung weight ratio (%): 0.82** %
[4]; asiatic acid 9 mg/kg, started from the second day
  lung weight ratio (%): 0.78** %
[4]; asiatic acid 27 mg/kg, started 7 day after model established
  lung weight ratio (%): 0.73** %
[4]; asiatic acid 27 mg/kg, started from the second day
  lung weight ratio (%): 0.69** %
[4]; asiatic acid 3 mg/kg, 28-day administration started 7 day after model established
  lung weight (g) X ± SD: 2.64 ± 0.33 g
[4]; asiatic acid 3 mg/kg, 28-day administration started from the second day
  lung weight (g) X ± SD: 2.74 ± 0.54 g
[4]; asiatic acid 9 mg/kg, 28-day administration started 7 day after model established
  lung weight (g) X ± SD: 2.69 ± 0.53 g
[4]; asiatic acid 9 mg/kg, 28-day administration started from the second day
  lung weight (g) X ± SD: 2.49 ± 0.40 g
[4]; asiatic acid 27 mg/kg, 28-day administration started 7 day after model established
  lung weight (g) X ± SD: 2.52 ± 0.25 g
[4]; asiatic acid 27 mg/kg, 28-day administration started from the second day
  lung weight (g) X ± SD: 2.41 ± 0.38 g
[4]; starting on 2nd or 7th day, compared with the model group
  lung weight to body weight ratio: significantly lower; also recorded: significantly decrease bleomycin-induced lung fibrosis
TFG-β; asiatic acid 3 mg/kg
  TFG-β (2nd day) X ± SD: 0.726 ± 0.220 OD value
  TFG-β (7th day) X ± SD: 1.494 ± 0.273 OD value
TFG-β; asiatic acid 9 mg/kg
  TFG-β (2nd day) X ± SD: 0.642 ± 0.139 OD value
  TFG-β (7th day) X ± SD: 1.165 ± 0.412 OD value
TFG-β; asiatic acid 27 mg/kg
  TFG-β (2nd day) X ± SD: 0.653 ± 0.157 OD value
  TFG-β (7th day) X ± SD: 1.049 ± 0.363 OD value
TFG-β
  serum levels of TGF-β (words): significantly reduces
TFG-β; listed as asiatic acid
  serum levels of TGF-β (words): can lower
